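Test compounds were applied to cells in 96-well plates for 48 hours at 5 doses. GI50 is the concentration that inhibits growth by half.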 Activity calls are given as the source filed them. No stated cut-off is given here; in the data, active = GI50 up to about 1.1 µM and inactive = higher.
Legend:
Assay in all cases: NCI tumour cell line growth inhibition, 48 h
CAKI-1 = test system: CAKI-1
MDA-N = test system: MDA-N
HOP-92 = test system: HOP-92
DU-145 = test system: DU-145
SK-MEL-2 = test system: SK-MEL-2
OVCAR-3 = test system: OVCAR-3
Hs-578T = test system: Hs-578T
A498 = test system: A498
Malme-3M = test system: Malme-3M
SNB-19 = test system: SNB-19
K562 = test system: K562
SR = test system: SR
IGROV-1 = test system: IGROV-1
BT-549 = test system: BT-549
COLO 205 = test system: COLO 205
NCI-H522 = test system: NCI-H522
OVCAR-5 = test system: OVCAR-5
SK-MEL-28 = test system: SK-MEL-28
HCT-116 = test system: HCT-116

Structure (SMILES)	GI50 (CAKI-1)	GI50 (MDA-N)	GI50 (HOP-92)	GI50 (DU-145)	GI50 (SK-MEL-2)	GI50 (OVCAR-3)	GI50 (Hs-578T)	GI50 (A498)	GI50 (Malme-3M)	GI50 (SNB-19)	GI50 (K562)	GI50 (SR)	GI50 (IGROV-1)	GI50 (BT-549)	GI50 (COLO 205)	GI50 (NCI-H522)	GI50 (OVCAR-5)	GI50 (SK-MEL-28)	GI50 (HCT-116)
Cc1cc(N)ccc1/N=N\c1ccc(S(=O)(=O)CCOS(=O)(=O)O)cc1	1.88 µM (inactive)	0.282 µM (active)	5.02 µM (inactive)	26 µM (inactive)	0.605 µM (active)	3.45 µM (inactive)	5.08 µM (inactive)	11.2 µM (inactive)	1.99 µM (inactive)	4.72 µM (inactive)	0.352 µM (active)	0.488 µM (active)	0.713 µM (active)	1.53 µM (inactive)	2.07 µM (inactive)	0.274 µM (active)	20.3 µM (inactive)	1.69 µM (inactive)	0.34 µM (active)
COc1ccc(C2CC(c3c(O)ccc4ccccc34)=NN2C(C)=O)cc1OC (centres undefined)	36.5 µM (inactive)	20.7 µM (inactive)	27.8 µM (inactive)	36.2 µM (inactive)	19.3 µM (inactive)	23.2 µM (inactive)	36.9 µM (inactive)	24.3 µM (inactive)	31 µM (inactive)	–	13.7 µM (inactive)	14.2 µM (inactive)	38.7 µM (inactive)	17 µM (inactive)	17 µM (inactive)	31.7 µM (inactive)	40.6 µM (inactive)	28.8 µM (inactive)	15.3 µM (inactive)
COC(=O)c1c(C)ccc2c(O)c3c(cc12)C(=O)c1c2c(cc(O)c1C3=O)C1(C)OC(C)(O2)C(O)C(N(C)C)C1O (centres undefined)	1.91 µM (inactive)	1.45 µM (inactive)	1.82 µM (inactive)	1.43 µM (inactive)	2.24 µM (inactive)	2.41 µM (inactive)	1.86 µM (inactive)	1.57 µM (inactive)	2.62 µM (inactive)	1.35 µM (inactive)	0.942 µM (active)	0.294 µM (active)	1.06 µM (active)	3.61 µM (inactive)	1.82 µM (inactive)	1.22 µM (inactive)	2.96 µM (inactive)	4.37 µM (inactive)	0.643 µM (active)
C=C=C(CC1CCCCC1=O)S(=O)(=O)c1ccccc1 (centres undefined)	> 10 µM (inactive)	> 7.13 µM (inactive)	> 10 µM (inactive)	> 7.13 µM (inactive)	> 10 µM (inactive)	> 10 µM (inactive)	> 10 µM (inactive)	> 10 µM (inactive)	> 10 µM (inactive)	> 10 µM (inactive)	1.69 µM (inactive)	2.41 µM (inactive)	> 10 µM (inactive)	> 10 µM (inactive)	> 10 µM (inactive)	0.245 µM (active)	> 10 µM (inactive)	> 10 µM (inactive)	2.65 µM (inactive)
CCCCN1C(=O)C[C@H]2[C@@H]3CCc4cc(OCCN5CCCC5)ccc4[C@H]3CC[C@]2(C)C1=O	7.96 µM (inactive)	4.38 µM (inactive)	6.08 µM (inactive)	13.9 µM (inactive)	4.67 µM (inactive)	10.6 µM (inactive)	13.2 µM (inactive)	14.7 µM (inactive)	3.89 µM (inactive)	12.6 µM (inactive)	1.74 µM (inactive)	3.79 µM (inactive)	15.7 µM (inactive)	13.7 µM (inactive)	1.92 µM (inactive)	8.41 µM (inactive)	11.4 µM (inactive)	3.45 µM (inactive)	3.64 µM (inactive)

From ChEMBL document CHEMBL1201862, “PubChem BioAssay data set” (2004)
